From patent publication US20090203773A1, “Compounds for the Treatment of Non-Autoimmune Type 2 Diabetes Mellitus and/or Syndrome X” (priority 2005, published 2009) come the findings set out here.

For test [1], the system named is C3H10T1/2 cells. Kind of test: Glucose uptake of adipocytes (radioactive 2-deoxyglucose, basal, without insulin). The settings on record: 48-h treatment; for Basal glucose uptake (% of control ± SEM): absence of insulin, DMSO control = 100%; for Basal glucose uptake, result in words: different concentrations. Format: cell-based. The method, then:
C3H10T1/2 cells (ATCC CCL-226) were grown for 5 days to confluence in DMEM supplemented with 10% FBS medium and induced with a mixture of insulin, dexamethasone and 3-isobutyl-1-methylxanthine to differentiate into adipocytes. Nine days after the beginning of induction, cells were treated for 48-h with the compound of the formula I-13 at different concentrations as shown in Table 1. Glucose uptake was determined using radioactive 2-deoxyglucose (10 μM 2-DG in HBS+0.5 μCi/ml of 3[H]-2-DG), measuring glucose uptake in the absence of insulin. Basal glucose uptake was increased by 48-h treatment with the compound of the formula I-13 in a dose-dependent manner (Table 1). Growing, induction and treatment of C3H10T1/2 cells were exactly as described in Example 1, with the exception that the compound of the formula I-15 at different concentrations was used instead of the compound of the formula I-13. […] Control: C3H10T1/2 cells treated for 48 h with DMSO at the same concentration as compound-treated cells and set at 100%

In another test the test system is C57BLKS/J db/db mice. Kind of test: Glucose tolerance / blood glucose in a 14-day db/db mouse study (OGTT). Format: in vivo. The method, then: The efficacy of the compound of the formula I-13 on glucose tolerance was tested in a 14-day study in C57BLKS/J db/db mice (n=10/group), a model of late type 2 diabetes mellitus with severe hyperglycemia.
Male db/db mice were obtained from Jackson Laboratory (Bar Harbor, Me., USA). Adult mice aged 8 weeks were used in the experiment. Mice were housed individually in plastic cages with bedding and allowed free access to standard rodent food and tap water. The animal rooms were controlled for temperature (24° C.), humidity (55%), and light (12-h light-dark cycle). The animals were randomized in two groups and the compound of the formula I-13 was administered orally to one of the groups for 14 days at a dose of 200 mg/kg BW/day. After 14 days of treatment the concentration of glucose was determined in blood from fed animals, i.e., animals which were not restricted from food. After a period of 10 days of treatment an oral glucose tolerance test (OGTT) was performed. For the OGTT mice were fasted overnight and then a 1-g glucose/kg BW solution was orally administered. Blood samples were taken before and 15, 30, 45, 60, 90, 120, 150, 180 min after the glucose challenge for determination of blood glucose levels and then the area under the curve (AUC) was determined. Blood glucose was measured by a glucose analyzer (Glucotrend Premium, Roche Diagnostics, Rotkreuz, Switzerland). The glucose and the free fatty acid (FFA) levels of fed animals (see above) were lowered after 14 days of treatment with the compound of the formula I-13. After 10 days of treatment with the compound of the formula I-13 the glucose levels of fasted animals, i.e., animals with an overnight fasting (see above) were decreased as compared to the untreated control group.

Test [2] relates to C3H10T1/2 cells. Kind of test: Differentiation of adipocytes (oil Red O staining). Type of test: cell-based. The settings on record: for Adipocyte differentiation, oil Red O, Mean OD ± SEM: 10-day treatment, absorbance at 540 nm; for Differentiation of the cells into adipocytes, result in words: co-treatment with insulin, compared with insulin alone. The protocol: C3H10T1/2 cells were grown to confluence as described in Example 1, then treated for 10 days with insulin alone (negative control) or with a mixture of insulin and the compound of the formula I-13 at different concentrations (see Table 2), with re-feeding with fresh medium and compounds every 48-h. After 10-days of treatment, the cells were stained with oil Red O as follows: cells were washed 2× in PBS and fixed in 10% formalin at room temperature for 1 h. After removal of formalin, 200 μl of oil Red O staining solution (3:2 mixture of 0.5% w/v oil Red O stock solution and water) was applied to each well. The cells were incubated for 20 min at room temperature, washed twice in 2×PBS and incubated for 10 min with 300 μl of isopropanol/well for oil Red O extraction. Quantification of oil Red O was determined by measuring absorbance at 540 nm (mean OD). […] C3H10T1/2 cells were grown and treated as described in Example 4 with the exception that the compound of the formula I-14 was used instead of the compound of the formula I-13. The measurement of adipocyte differentiation using the oil Red O assay was performed as described in Example 4. […] C3H10T1/2 cells were grown and treated as described in Example 4 with the exception that the compound of the formula I-15 was used instead of the compound of the formula I-13. The measurement of adipocyte differentiation using the oil Red O assay was performed as described in Example 4.

[3] abbreviates: 200 mg/kg BW/day orally, after 14 days, fed animals.
[4] abbreviates: Insulin 1 × 10^−7 M + compound 1 × 10^−5 M.

Regarding `CC1(COc2ccc(CC3SC(=O)NC3=O)cc2)CCCCC1` (stereo not shown) [Ciglitazone, reference compound], in the test with C3H10T1/2 cells [1] (5 × 10^−5 M), the “Basal glucose uptake (% of control ± SEM)” value was 496.178 ± 61.86 % of control.
As for `COc1ccc(C(=O)/C=C/c2c(CCN(C)C(C)=O)cc3c(c2OC)OCO3)cc1` [I-13], the “Glucose AUC” value with C57BLKS/J db/db mice (200 mg/kg BW/day orally, OGTT (1 g glucose/kg BW) on day 10, 0-180 min) came out at 54295. Also, the “Blood Glucose Fasted” value in the test on C57BLKS/J db/db mice (200 mg/kg BW/day orally, after 10 days, overnight fasting) was 135 mg/dL. In addition, the “Blood Glucose Fed” value with C57BLKS/J db/db mice (setting [3]) amounted to 771 mg/dL. In addition, in the test on C57BLKS/J db/db mice (setting [3]), the FFA was determined as 12.38 mg/dL. Moreover, the “Glucose AUC of an OGTT, result in words” value in the test on C57BLKS/J db/db mice (200 mg/kg BW/day, OGTT 1 g glucose/kg body weight on day 10) is “significantly reduced”. In addition, the “Glucose levels of fasted animals, result in words” value in the test on C57BLKS/J db/db mice (200 mg/kg BW/day, after 10 days, compared to untreated control group) is recorded as “decreased”. Moreover, in the test with C57BLKS/J db/db mice (200 mg/kg BW/day, after 14 days), the “Glucose and free fatty acid (FFA) levels of fed animals, result in words” value is recorded as “lowered”. Besides, the “Blood glucose levels during the OGTT, result in words” value in the test on C57BLKS/J db/db mice (200 mg/kg BW/day, day 10, compared with control group) is “lower at all time points”. Besides, the “Adipocyte differentiation, oil Red O, Mean OD ± SEM” value in the test on C3H10T1/2 cells [2] (setting [4]) is listed as 0.69 ± 0.019. For the same compound, in the test on C3H10T1/2 cells [2], the “Differentiation of the cells into adipocytes, result in words” value (“Differentiation … in words” for short) is recorded as “higher differentiation”. Also, the “Basal glucose uptake (% of control ± SEM)” value is listed as 94.58 ± 0.95 % of control in the test on C3H10T1/2 cells [1] (1 × 10^−5 M), 97.6 ± 22.9 % of control in the test with C3H10T1/2 cells [1] (1 × 10^−6 M), 128.6 ± 0.89 % of control in the test with C3H10T1/2 cells [1] (2.4 × 10^−5 M) and 194.058 ± 0.05 % of control with C3H10T1/2 cells [1] (5 × 10^−4 M). Further, the “Basal glucose uptake, result in words” value in the test on C3H10T1/2 cells [1] was “increased”.
For `COc1ccc(C(=O)C=Cc2cccc(OC(=O)C=Cc3ccccc3)c2)cc1` [I-14], the “Adipocyte differentiation, oil Red O, Mean OD ± SEM” value in the test with C3H10T1/2 cells [2] (setting [4]) amounted to 0.45 ± 0.037. For the same compound, the “Differentiation … in words” value in the test with C3H10T1/2 cells [2] was “higher differentiation”.
In the case of `COc1ccc(/C=C/C(=O)c2ccc(OC(=O)c3ccccc3)cc2)cc1OC` [I-15], the “Adipocyte differentiation, oil Red O, Mean OD ± SEM” value in the test on C3H10T1/2 cells [2] (setting [4]) is on record as 0.53 ± 0.025; in the test with C3H10T1/2 cells [2] (Insulin 1 × 10^−7 M + compound 2 × 10^−4 M), 0.34 ± 0.087; in the test with C3H10T1/2 cells [2] (Insulin 1 × 10^−7 M + compound 5 × 10^−5 M) it was 0.53 ± 0.017. Also, the “Differentiation … in words” value in the test on C3H10T1/2 cells [2] is “higher differentiation”. Further, the “Basal glucose uptake (% of control ± SEM)” value is recorded as 133.28 ± 23.4 % of control with C3H10T1/2 cells [1] (1 × 10^−5 M), 105.37 ± 2.21 % of control in the test on C3H10T1/2 cells [1] (1 × 10^−6 M), 142.84 ± 18.05 % of control in the test on C3H10T1/2 cells [1] (2 × 10^−4 M) and 116.17 ± 15.96 % of control in the test with C3H10T1/2 cells [1] (5 × 10^−5 M). For the same compound, the “Basal glucose uptake, result in words” value in the test with C3H10T1/2 cells [1] is “increase”.
Insulin: in the test on C3H10T1/2 cells [2] (Insulin 1 × 10^−7 M alone (negative control)), the “Adipocyte differentiation, oil Red O, Mean OD ± SEM” value is 0.28 ± 0.03.
